Test results taken from PubChem BioAssay AID330 (DTP/NCI, 2004).
“And” between values parts separate entries of the source, which are not always exact repeats. Equal values may be shown once. Toxic doses and inconclusive results are not listed.

Tested on: P388 leukemia ip, CD2F1 mice, survival T/C
Test: NCI In Vivo Anticancer Drug Screen. Data for tumor model P388 Leukemia (intraperitoneal) in CD2F1 (CDF1) mice
Settings: endpoint: median survival time, higher = longer survival
Procedure, shortened: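 Mice carrying the transplanted tumor received test compound or vehicle. Survival was recorded in each group, and the value is the treated-group measurement divided by that of the vehicle-treated control group.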

[1] = dose: 50.0 mg/kg/injection, schedule: Q01DX005 (ip), vehicle: saline with Tween-80
[2] = dose: 100.0 mg/kg/injection, schedule: Q01DX005 (ip), vehicle: saline with Tween-80
[3] = dose: 60.0 mg/kg/injection, schedule: Q01DX005 (ip), vehicle: saline with Tween-80
[4] = dose: 120.0 mg/kg/injection, schedule: Q01DX005 (ip), vehicle: saline with Tween-80
[5] = dose: 50.0 mg/kg/injection, schedule: Q01DX009 (ip), vehicle: saline with Tween-80
[6] = dose: 100.0 mg/kg/injection, schedule: Q01DX009 (ip), vehicle: saline with Tween-80
[7] = dose: 50.0 mg/kg/injection, schedule: Q01DX009 (ip), vehicle: Klucel (hydroxypropylcellulose) (HPC)
[8] = dose: 100.0 mg/kg/injection, schedule: Q01DX009 (ip), vehicle: Klucel (hydroxypropylcellulose) (HPC)
[9] = dose: 200.0 mg/kg/injection, schedule: Q01DX009 (ip), vehicle: Klucel (hydroxypropylcellulose) (HPC)
[10] = dose: 12.5 mg/kg/injection, schedule: Q01DX001 (ip), vehicle: saline
[11] = dose: 25.0 mg/kg/injection, schedule: Q01DX001 (ip), vehicle: saline
[12] = dose: 50.0 mg/kg/injection, schedule: Q01DX001 (ip), vehicle: saline
[13] = dose: 100.0 mg/kg/injection, schedule: Q01DX001 (ip), vehicle: Klucel (hydroxypropylcellulose) (HPC)
[14] = dose: 200.0 mg/kg/injection, schedule: Q01DX001 (ip), vehicle: Klucel (hydroxypropylcellulose) (HPC)
[15] = dose: 400.0 mg/kg/injection, schedule: Q01DX001 (ip), vehicle: Klucel (hydroxypropylcellulose) (HPC)
[16] = dose: 100.0 mg/kg/injection, schedule: Q01DX001 (ip), vehicle: saline
[17] = dose: 50.0 mg/kg/injection, schedule: Q01DX009 (ip), vehicle: saline
[18] = dose: 100.0 mg/kg/injection, schedule: Q01DX009 (ip), vehicle: saline
[19] = dose: 200.0 mg/kg/injection, schedule: Q01DX009 (ip), vehicle: saline

`N#Cc1[nH]cnc1O` was tested, and the T/C [1] was 103 % of control, the T/C [2] was 101 % of control and the T/C (dose: 200.0 mg/kg/injection, schedule: Q01DX005 (ip), vehicle: saline with Tween-80) was 112 % of control.
`C/C(Cl)=C/CN(C/C=C(/C)Cl)CCO` was tested, and the T/C [1] was 101 % of control and the T/C [2] was 102 % of control.
`CC(C)c1oc(=O)cc2c1C(O)C1OC(=O)C3(C)C(O)C4OC4C2(C)C13` (stereo not drawn) was tested, and the T/C (dose: 15.0 mg/kg/injection, schedule: Q01DX005 (ip), vehicle: Klucel (hydroxypropylcellulose) (HPC)) was 103 % of control and 105 % of control, the T/C (dose: 30.0 mg/kg/injection, schedule: Q01DX005 (ip), vehicle: Klucel (hydroxypropylcellulose) (HPC)) was 103 % of control and 107 % of control and the T/C (dose: 60.0 mg/kg/injection, schedule: Q01DX005 (ip), vehicle: Klucel (hydroxypropylcellulose) (HPC)) was 120 % of control. For the same compound, the T/C (dose: 120.0 mg/kg/injection, schedule: Q01DX005 (ip), vehicle: Klucel (hydroxypropylcellulose) (HPC)) was 111 % of control.
`CC1C2CCC3C(O)C2(CC(O)C2(O)C1CC(O)C2(C)C)CC3(C)O` (stereo not drawn) was tested, and the T/C (dose: 0.25 mg/kg/injection, schedule: Q01DX009 (ip), vehicle: Klucel (hydroxypropylcellulose) (HPC)) was 101 % of control, the T/C (dose: 0.5 mg/kg/injection, schedule: Q01DX009 (ip), vehicle: Klucel (hydroxypropylcellulose) (HPC)) was 93 % of control and the T/C (dose: 1.0 mg/kg/injection, schedule: Q01DX009 (ip), vehicle: Klucel (hydroxypropylcellulose) (HPC)) was 95 % of control.
For `CCNc1ccc(C(=O)c2cccc(N)c2)cc1N`, the T/C [3] was 96 % of control, the T/C [4] was 96 % of control and the T/C (dose: 240.0 mg/kg/injection, schedule: Q01DX005 (ip), vehicle: saline with Tween-80) was 89 % of control.
In the case of `CC1=CC(OC2CCCCC2)OC1=O` (stereo not drawn), the T/C (dose: 47.5 mg/kg/injection, schedule: Q01DX005 (ip), vehicle: Klucel (hydroxypropylcellulose) (HPC)) is reported as 104 % of control, the T/C (dose: 95.0 mg/kg/injection, schedule: Q01DX005 (ip), vehicle: Klucel (hydroxypropylcellulose) (HPC)) is reported as 101 % of control and the T/C (dose: 190.0 mg/kg/injection, schedule: Q01DX005 (ip), vehicle: Klucel (hydroxypropylcellulose) (HPC)) is reported as 104 % of control.
With `O=C(Nc1ccccc1)/C(N=Nc1cc(S(=O)(=O)O)ccc1Cl)=N/Nc1cc(S(=O)(=O)O)ccc1Cl` the T/C [5] was 98 % of control, the T/C [6] was 96 % of control and the T/C (dose: 200.0 mg/kg/injection, schedule: Q01DX009 (ip), vehicle: saline with Tween-80) was 86 % of control.
With `C[C@H](N)[C@@H](O)/C=C/c1ccccc1` the T/C (dose: 10.0 mg/kg/injection, schedule: Q01DX005 (ip), vehicle: saline) was 98 % of control, the T/C (dose: 20.0 mg/kg/injection, schedule: Q01DX005 (ip), vehicle: saline) was 100 % of control and the T/C (dose: 40.0 mg/kg/injection, schedule: Q01DX005 (ip), vehicle: saline) was 100 % of control.
In the case of `Cc1cccc(N=Cc2ccc(C=Nc3cccc(C)c3C)cc2)c1C`, the T/C [7] is reported as 92 % of control, the T/C [8] is reported as 91 % of control and the T/C [9] is reported as 86 % of control.
For `Cc1ccc(N/N=c2\c3nc4ccccc4nc2n(-c2ccccc2C)c(=S)n3-c2ccc(C)cc2)cc1`, the T/C [3] was 93 % of control and the T/C [4] was 96 % of control.
For `COc1ccc(C(C)(C)c2cc3c(cc2OC)OCO3)cc1`, the T/C [3] was 104 % of control and the T/C [4] was 116 % of control.
`O=C(NC(=O)c1cccc2ccccc12)NC(=S)c1ccc(Br)cc1` was tested, and the T/C [10] was 101 % of control, the T/C [11] was 101 % of control and the T/C [12] was 101 % of control.
For `CC1=C(C)CC2C(=O)c3c(c(O)c4ccccc4c3Cl)C(=O)C2C1` (stereo not drawn), the T/C (dose: 50.0 mg/kg/injection, schedule: Q01DX001 (ip), vehicle: Klucel (hydroxypropylcellulose) (HPC)) was 90 % of control, the T/C [13] was 89 % of control and the T/C [14] was 86 % of control and 90 % of control. The T/C [15] was 92 % of control.
For `CCO/C=C1/N=C(Cc2ccccc2)OC1=O`, the T/C (dose: 60.0 mg/kg/injection, schedule: Q01DX005 (ip), vehicle: saline + Tween-80 + alcohol) was 100 % of control and the T/C (dose: 120.0 mg/kg/injection, schedule: Q01DX005 (ip), vehicle: saline + Tween-80 + alcohol) was 94 % of control.
`Cc1ccc(OP(=O)(Oc2ccc(C)cc2)Oc2ccc(C)cc2)cc1.Cc1ccc(OP(=O)(Oc2ccc(C)cc2)Oc2ccc(C)cc2)cc1.[Cl][Co][Cl]` was tested, and the T/C [13] was 96 % of control, the T/C [14] was 100 % of control and the T/C [15] was 92 % of control.
For `O=C1NC(=O)C(c2ccccc2)(c2ccccc2)C2CC3c4[nH]c5ccccc5c4CCN3CC12` (stereo not drawn), the T/C [11] was 117 % of control, the T/C [12] was 88 % of control and the T/C [16] was 114 % of control and 90 % of control.
With `CCS(=O)(=O)OCCCNCCCOS(=O)(=O)CC` the T/C [10] was 124 % of control, the T/C (dose: 12.5 mg/kg/injection, schedule: Q04DX003 (ip), vehicle: saline) was 154 % of control and the T/C [11] was 86 % of control. The T/C (dose: 25.0 mg/kg/injection, schedule: Q01DX009 (ip), vehicle: saline) was 215 % of control, the T/C (dose: 25.0 mg/kg/injection, schedule: Q04DX003 (ip), vehicle: saline) was 160 % of control and the T/C [7] was 201 % of control. For the same compound, the T/C [17] was 268 % of control, the T/C (dose: 50.0 mg/kg/injection, schedule: Q04DX003 (ip), vehicle: saline) was 193 % of control and the T/C [16] was 156 % of control. For the same compound, the T/C [8] was 199 % of control, the T/C [18] was 277 % of control and the T/C (dose: 100.0 mg/kg/injection, schedule: Q04DX003 (ip), vehicle: saline) was 209 % of control. The T/C (dose: 200.0 mg/kg/injection, schedule: Q01DX001 (ip), vehicle: saline) was 173 % of control, the T/C [9] was 94 % of control and the T/C [19] was 175 % of control. The T/C (dose: 200.0 mg/kg/injection, schedule: Q04DX003 (ip), vehicle: saline) was 272 % of control and the T/C (dose: 400.0 mg/kg/injection, schedule: Q01DX001 (ip), vehicle: saline) was 181 % of control.
In the case of `CC(C)=NOc1ccc([N+](=O)[O-])cc1[N+](=O)[O-]`, the T/C [5] is reported as 96 % of control and the T/C [6] is reported as 108 % of control.
`NC(=O)c1cc(Br)ccc1[N+](=O)[O-]` was tested, and the T/C [17] was 97 % of control, the T/C [18] was 97 % of control and the T/C [19] was 87 % of control.
